Test results from US10696707B2, “Polyene macrolide derivative” (Shionogi & Co., Ltd., priority 2014, dated 2020).
≈ marks a conversion by molar mass, not a printed value. Like-named read-outs stand apart in the source and are kept apart here.

Columns and labels:
Assay type in all cases: cell-based
C. albicans ATCC90028 = assay: Antifungal activity test, MIC by broth microdilution (CLSI M27-A3); conditions: C. albicans ATCC90028, 35° C., 24-48 hours
Method: (§1) The Minimum Inhibitory Concentration (MIC) values of the present compound against yeast and filamentous fungi were determined by broth microdilution assay according to the Clinical Laboratory Standards Institute (CLSI) guidelines outlined in documents M27-A3 and M38-A2. The medium used in the assay consisted of RPMI1640 (with glutamine, without bicarbonate) with 2% glucose and 0.165 mol/L morpholinepropanesulfonic acid (MOPS) with pH adjusted to 7.0 using 1 mol/L sodium hydroxide. The present compound was dissolved in dimethyl sulfoxide (DMSO). A series of two-fold dilutions were prepared in DMSO, and then 2 μL of the diluted compound was added to each well in 96-well sterile plates. Each inoculum was prepared by diluting a suspension of Candida spp. or a conidia suspension of Aspergillus spp. suspended in sterile saline solution, and then 200 μL was added to each well to a predetermined concentration using RPMI/MOPS (final concentration for each solution: approximately 1×10^3 cells/mL and approximately 1×10^4 CFU/mL). Plates of Candida spp. and Aspergillus spp. were incubated at 35° C. for 24-48 hours. The MIC was defined as the lowest concentration giving 100% inhibition compared to the growth control.

A. fumigatus ATCC204305 = assay: Antifungal activity test, MIC by broth microdilution (CLSI M38-A2); conditions: A. fumigatus ATCC204305, 35° C., 24-48 hours
Method: as §1

A. flavus ATCC204304 = assay: as above; conditions: A. flavus ATCC204304, 35° C., 24-48 hours
Method: as §1

[1] = test system: red blood cells (5% RBC suspension); assay: Test Example 2-1: in vitro hemolytic activity test (upper limit 50, 80, 100 or 200 μmol/L); conditions: 5% RBC suspension, 37° C., one hour, read-out: hemolysis IC50
Summary of the method: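 A 5% suspension of washed red cells in Earle's medium was exposed to doubling dilutions of compound from DMSO, with maxima of 50, 80, 100 or 200 μmol/L final, for 1 h at 37 °C, 5% CO2. Supernatant absorbance at 540 nm was normalised to water-lysed cells. IC50 is the concentration giving 50% hemolysis; ">" values exceed the top concentration.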

[2] = broth microdilution, 100% inhibition
[3] = hemolysis method 50 (upper concentration 50 μmol/L)
[4] = Candida albicans, broth microdilution, 100% inhibition, read-out: MIC
[5] = Aspergillus fumigatus, broth microdilution, 100% inhibition, read-out: MIC
[6] = Aspergillus flavus, broth microdilution, 100% inhibition, read-out: MIC
[7] = lowest concentration giving 100% inhibition

SMILES | MIC (C. albicans ATCC90028; [2]) [µg/mL] | MIC (A. fumigatus ATCC204305; [2]) [µg/mL] | MIC (A. flavus ATCC204304; [2]) [µg/mL] | IC50 [1, 3] [µM] | MIC (C. albicans ATCC90028; [4]) [µg/mL] | MIC (A. fumigatus ATCC204305; [5]) [µg/mL] | MIC (A. flavus ATCC204304; [6]) [µg/mL] | other results
C[C@@H]1[C@H](O)[C@@H](C)/C=C/C=C/C=C/C=C/C=C/C=C/C=C/[C@H](O[C@@H]2O[C@H](C)[C@@H](O)[C@H](N)[C@@H]2O)C[C@@H]2O[C@](O)(C[C@@H](O)C[C@@H](O)[C@H](O)CC[C@@H](O)C[C@@H](O)CC(=O)O[C@H]1C)C[C@H](O)[C@H]2NC(=O)N1CCC1C(=O)O (stereo partly shown) [I-284] | 0.5 (≈ 0.489 µM) | 1 (≈ 0.978 µM) | 0.5 (≈ 0.489 µM) | > 50 | – | – | – | –
C[C@@H]1[C@H](O)[C@@H](C)/C=C/C=C/C=C/C=C/C=C/C=C/C=C/[C@H](O[C@@H]2O[C@H](C)[C@@H](O)[C@H](N)[C@@H]2O)C[C@@H]2O[C@](O)(C[C@@H](O)C[C@@H](O)[C@H](O)CC[C@@H](O)C[C@@H](O)CC(=O)O[C@H]1C)C[C@H](O)[C@H]2NC(=O)NC(CO)CO [I-40] | – | – | – | – | 0.125 (≈ 0.123 µM) | 0.25 (≈ 0.247 µM) | 0.5 (≈ 0.494 µM) | IC50 ([1]; Erythrocyte, 1 h, hemolysis method 80 (upper concentration 80 μmol/L)): > 80 µM
C[C@@H]1[C@H](O)[C@@H](C)/C=C/C=C/C=C/C=C/C=C/C=C/C=C/[C@H](O[C@@H]2O[C@H](C)[C@@H](O)[C@H](N)[C@@H]2O)C[C@@H]2O[C@](O)(C[C@@H](O)C[C@@H](O)[C@H](O)CC[C@@H](O)C[C@@H](O)CC(=O)O[C@H]1C)C[C@H](O)[C@H]2NC(=O)NC[C@@H](O)C(=O)O [I-311] | 0.5 (≈ 0.487 µM) | 0.5 (≈ 0.487 µM) | 0.5 (≈ 0.487 µM) | > 50 | – | – | – | –
C[C@@H]1[C@H](O)[C@@H](C)/C=C/C=C/C=C/C=C/C=C/C=C/C=C/[C@H](O[C@@H]2O[C@H](C)[C@@H](O)[C@H](N)[C@@H]2O)C[C@@H]2O[C@](O)(C[C@@H](O)C[C@@H](O)[C@H](O)CC[C@@H](O)C[C@@H](O)CC(=O)O[C@H]1C)C[C@H](O)[C@H]2NC(=O)NC[C@H](O)C(=O)O [I-259] | 0.5 (≈ 0.487 µM) | 1 (≈ 0.974 µM) | 0.5 (≈ 0.487 µM) | > 50 | – | – | – | –
C[C@@H]1[C@H](O)[C@@H](C)/C=C/C=C/C=C/C=C/C=C/C=C/C=C/[C@H](O[C@@H]2O[C@H](C)[C@@H](O)[C@H](N)[C@@H]2O)C[C@@H]2O[C@](O)(C[C@@H](O)C[C@@H](O)[C@H](O)CC[C@@H](O)C[C@@H](O)CC(=O)O[C@H]1C)C[C@H](O)[C@H]2NC(N)=O [I-36] | – | – | – | – | 0.25 (≈ 0.266 µM) | 1 (≈ 1.07 µM) | 1 (≈ 1.07 µM) | –
C[C@@H]1[C@H](O)[C@@H](C)/C=C/C=C/C=C/C=C/C=C/C=C/C=C/[C@H](O[C@@H]2O[C@H](C)[C@@H](O)[C@H](N)[C@@H]2O)C[C@@H]2O[C@](O)(C[C@@H](O)C[C@@H](O)[C@H](O)CC[C@@H](O)C[C@@H](O)CC(=O)O[C@H]1C)C[C@H](O)[C@H]2NC(=O)N1C[C@@](O)(C(=O)O)[C@@](O)(C(=O)O)C1 [I-298] | – | – | – | – | 0.5 (≈ 0.45 µM) | 0.5 (≈ 0.45 µM) | 1 (≈ 0.899 µM) | –
C[C@@H]1[C@H](O)[C@@H](C)/C=C/C=C/C=C/C=C/C=C/C=C/C=C/[C@H](O[C@@H]2O[C@H](C)[C@@H](O)[C@H](NC(=N)NO)[C@@H]2O)C[C@@H]2O[C@](O)(C[C@@H](O)C[C@@H](O)[C@H](O)CC[C@@H](O)C[C@@H](O)CC(=O)O[C@H]1C)C[C@H](O)[C@H]2NC(=O)NNC(=O)[C@H](O)CO [I-380] | – | – | – | – | – | – | – | MIC (C. albicans ATCC90028; [7]): 0.5 µg/mL (≈ 0.455 µM); MIC (A. fumigatus ATCC204305; [7]): 1 µg/mL (≈ 0.91 µM); MIC (A. flavus ATCC204304; [7]): 0.5 µg/mL (≈ 0.455 µM)
C[C@@H]1[C@H](O)[C@@H](C)/C=C/C=C/C=C/C=C/C=C/C=C/C=C/[C@H](O[C@@H]2O[C@H](C)[C@@H](O)[C@H](N)[C@@H]2O)C[C@@H]2O[C@](O)(C[C@@H](O)C[C@@H](O)[C@H](O)CC[C@@H](O)C[C@@H](O)CC(=O)O[C@H]1C)C[C@H](O)[C@H]2NC(=O)NCC(=O)NCC#N [I-157] | 0.5 (≈ 0.483 µM) | 1 (≈ 0.967 µM) | 0.5 (≈ 0.483 µM) | – | – | – | – | –
C[C@@H]1[C@H](O)[C@@H](C)/C=C/C=C/C=C/C=C/C=C/C=C/C=C/[C@H](O[C@@H]2O[C@H](C)[C@@H](O)[C@H](N)[C@@H]2O)C[C@@H]2O[C@](O)(C[C@@H](O)C[C@@H](O)[C@H](O)CC[C@@H](O)C[C@@H](O)CC(=O)O[C@H]1C)C[C@H](O)[C@H]2NC(=O)NCC1(C(=O)O)CC1 [I-202] | 0.5 (≈ 0.483 µM) | 1 (≈ 0.965 µM) | 0.5 (≈ 0.483 µM) | – | – | – | – | –
